Target: Tyrosine-protein kinase ABL1 [T315I] (Homo sapiens, UniProt P00519, T315I)
Assay: Kinase Inhibition Assays

IC50: 133 nM
SMILES: C=CC(=O)N1CCC(n2nc(C#Cc3cc(C(=O)Nc4ccc(CN5CCN(C)CC5)c(C(F)(F)F)c4)ccc3C)c3c(N)ncnc32)CC1 [US10266537, Compound 121]

From BindingDB's records for patent US10266537 (St. Chuan University, 2019)
